Results as given in US10870832B2, “Use of small molecules to enhance MAFA expression in pancreatic endocrine cells” (Janssen Biotech, Inc., priority 2014, dated 2020).

What was measured:
G6PC2 expression = test: Stage 7 treatment, real-time PCR of G6PC2 (Example 6); type: cell-based, human; details: Stage 7, day 7, 2 μM in Stage 7 medium, H1-derived cells, mRNA
Description: (§1) Cells of the human embryonic stem cell line H1 (WA01) were seeded as single cells at 1×10^5 cells/cm^2 on MATRIGEL™ (1:30 dilution) coated dishes in E8 media. At about 70 to 80% confluency, the cultures were washed in 1× incomplete DPBS followed by incubation with 1× TrypLET™ Express Enzyme for 3 to 5 minutes at 37° C. The released cells were rinsed with E8 and spun at 1000 rpm for 5 minutes. The resulting cell pellet was resuspended in E8 supplemented with 10 μM Y-27632 and the single cell suspension was seeded at approximately 1.3 to 1.5×10^5 cells/cm^2. The cultures were fed every day with E8 medium and differentiation, according to the following protocol, was initiated 48 hrs. following seeding resulting in an about 90% starting confluency.
(§2) Stage 6 cells were cultured for seven days in BLAR medium supplemented with a 1:100 dilution of ITS-X; 20 mM glucose (final); 1.5 g/L sodium bicarbonate; 2% FAF-BSA; 10 μg/ml of heparin, 10 μM ZnSO4, 1 μM T3 as 3,3′, 5-triiodo-L-thyronine sodium salt, 10 μM ALK5 inhibitor II, 1 mM N-acetyl cysteine. […]
(§3) At Stage 7, day 7, mRNA was collected and expression of MAFA, UCN3, PDX1, NKX6.1, insulin and G6PC2 evaluated as compared to undifferentiated human stem cells. […]

MAFA expression = test: Stage 7 treatment, real-time PCR of MAFA (Example 6); type: cell-based, human; details: Stage 7, day 7, 2 μM in Stage 7 medium, H1-derived cells, mRNA
Description: as §1, §2, §3

`Nc1nc(Nc2ccc3c(c2)CC[C@@H](N2CCCC2)CC3)nn1-c1cc2c(nn1)-c1ccccc1CCC2` [R428, 1H-1,2,4-Triazole-3,5-diamine, 1-(6,7-dihydro-5H-benzo[6,7]cyclohepta[1,2-c]pyridazin-3-yl) N3-[(7S)-6,7,8,9-tetrahydro-7-(1-pyrrolidinyl)-5H-benzocyclohepten-2-yl]-] was tested, and the G6PC2 expression (G6PC2 expression) was “reduces other beta cell maturation markers” and the MAFA expression (MAFA expression) was “increases MAFA expression”.
